The values below are quoted from earlier work in US20180271890A1, “Solid Pharmaceutical Composition Comprising Amorphous Sofosbuvir” (priority 2015, published 2018).

As for `CC(C)OC(=O)[C@H](C)N[P@](=O)(OC[C@H]1O[C@@H](n2ccc(=O)[nH]c2=O)[C@](C)(F)[C@@H]1O)Oc1ccccc1` [Amorphous sofosbuvir, (S)-isopropyl 2-(((S)-(((2R,3R,4R,5R)-5-(2,4-dioxo-3,4-dihydropyrimidin-1(2H)-yl)-4-fluoro-3-hydroxy-4-methyltetrahydrofuran-2-yl)methoxy)(phenoxy)phosphoryl)-amino)propanoate], the “relative humidity at which the substance deliquesces” value (amorphous form) is listed as “above 50%”.

Regarding `CC(C)OC(=O)[C@H](C)N[P@](=O)(OC[C@H]1O[C@@H](n2ccc(=O)[nH]c2=O)[C@](C)(F)[C@@H]1O)Oc1ccccc1` [sofosbuvir, (S)-isopropyl 2-(((S)-(((2R,3R,4R,5R)-5-(2,4-dioxo-3,4-dihydropyrimidin-1(2H)-yl)-4-fluoro-3-hydroxy-4-methyltetrahydrofuran-2-yl)methoxy)(phenoxy)phosphoryl)-amino)propanoate], the “behaviour under stress conditions” value (40 °C, relative humidity 75%) is “deliquesces after a few hours”.
